Experimental data reported in ChEMBL document CHEMBL1201862, “PubChem BioAssay data set” (2004).
Active and inactive are the calls of the source.

Columns and labels:
[1] = biological target: Induced myeloid leukemia cell differentiation protein Mcl-1 (Homo sapiens, UniProt Q07820); assay type: functional
[2] = biological target: Intestinal-type alkaline phosphatase (Homo sapiens, UniProt P09923); assay: activation of human intestinal alkaline phosphatase – biochemical, dose response (AID 488873); assay type: functional
[3] = biological target: Dual specificity tyrosine-phosphorylation-regulated kinase 1A (Rattus norvegicus, UniProt Q63470); assay type: biochemical, Homo sapiens
[4] = biological target: T1, Rac GTPase-activating protein 1 (Homo sapiens, UniProt Q9H0H5); assay: blockers of MgcRacGAP-driven Rac1 GTP hydrolysis – biochemical, ADP Hunter fluorescence, primary and confirmatory, confirmation (AID 624330); assay type: functional
T1 sequence (Q9H0H5 whole entry): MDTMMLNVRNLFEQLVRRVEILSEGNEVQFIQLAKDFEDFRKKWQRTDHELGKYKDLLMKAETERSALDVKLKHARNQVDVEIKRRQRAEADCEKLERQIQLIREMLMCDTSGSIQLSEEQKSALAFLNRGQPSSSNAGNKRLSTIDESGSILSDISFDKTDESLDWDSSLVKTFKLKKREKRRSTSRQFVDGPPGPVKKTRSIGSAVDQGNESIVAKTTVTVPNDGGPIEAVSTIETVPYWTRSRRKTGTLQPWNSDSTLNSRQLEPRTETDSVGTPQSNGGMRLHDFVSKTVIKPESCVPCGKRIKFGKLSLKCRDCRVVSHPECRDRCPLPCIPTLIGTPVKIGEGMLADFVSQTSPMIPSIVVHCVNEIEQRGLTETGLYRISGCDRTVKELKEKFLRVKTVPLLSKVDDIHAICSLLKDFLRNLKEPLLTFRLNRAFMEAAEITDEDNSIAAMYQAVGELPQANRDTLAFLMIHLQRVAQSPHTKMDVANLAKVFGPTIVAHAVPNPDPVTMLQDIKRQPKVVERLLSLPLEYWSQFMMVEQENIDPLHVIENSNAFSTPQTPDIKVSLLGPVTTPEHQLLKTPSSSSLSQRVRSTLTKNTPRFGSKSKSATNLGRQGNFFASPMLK

[5] = biological target: Dual specificity mitogen-activated protein kinase kinase 1 (Homo sapiens, UniProt Q02750); assay: Navigating the Kinome. Panel member name: MAP2K1; assay type: functional
[6] = biological target: ALK tyrosine kinase receptor (Homo sapiens, UniProt Q9UM73); assay type: functional;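 note: ALK tested as one member of a kinase panel screen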
[7] = biological target: Testis-specific serine/threonine-protein kinase 2 (Homo sapiens, UniProt Q96PF2); assay type: functional;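 note: part of the Navigating the Kinome panel, target entry STK22B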
[8] = biological target: Death-associated protein kinase 3 (Homo sapiens, UniProt O43293); assay type: functional;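 note: measured as one member of a kinome-wide profiling panel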
SRSF protein kinase 1 = SRSF protein kinase 1 (Homo sapiens, UniProt Q96SB4); assay type: functional;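 note: measured as one member of a kinome-wide kinase profiling panel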
[9] = biological target: Casein kinase II subunit alpha (Homo sapiens, UniProt P68400); assay type: functional
[10] = biological target: Testis-specific serine/threonine-protein kinase 1 (Homo sapiens, UniProt Q9BXA7); assay type: functional
Insulin receptor = Insulin receptor (Homo sapiens, UniProt P06213); assay type: functional;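 note: insulin receptor kinase tested as one member of a kinome-wide kinase panel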
[11] = biological target: Proto-oncogene tyrosine-protein kinase Src (Homo sapiens, UniProt P12931); assay type: functional;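 note: SRC entry within a kinome-wide kinase profiling panel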
[12] = biological target: Cyclin-dependent kinase 1 (Homo sapiens, UniProt P06493); assay type: functional;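 note: Kinome-wide panel profiling, with the target listed as panel member CDC2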
[13] = biological target: 3-phosphoinositide-dependent protein kinase 1 (Homo sapiens, UniProt O15530); assay type: functional;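 note: value comes from the Navigating the Kinome panel, PDPK1 member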
[14] = growth inhibition of MALME3 cells – cell-based, CellTiter-Glo luminescence, dry powder, set 5, orthogonal assay for MITF inhibitor project, dose response (AID 651584); assay type: functional; conditions: MALME-3
[15] = MITF Measured in Cell-Based System Using Plate Reader - 2084-01_Inhibitor_Dose_DryPowder_Activity_Set6.; assay type: functional
[16] = test system: Streptococcus sp. 'group A'; assay: Streptococcus pyogenes SK(-)GAS viability under kanamycin – luminescence, BacTiterGlo, confirmation, counter-screen for streptokinase expression inhibitor project, dose response (AID 1900); assay type: functional, organism-based
Streptokinase A = biological target: T2, Streptokinase A (Streptococcus pyogenes serotype M1, UniProt P10520); assay: viability-normalized secreted streptokinase activity reduction – plasminogen activation absorbance, OD405, dose response (AID 1914); assay type: functional, Streptococcus pyogenes M1 GAS;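 note: secreted streptokinase activity via plasminogen activation per viability signal from cell pellet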
T2 sequence (P10520 whole entry): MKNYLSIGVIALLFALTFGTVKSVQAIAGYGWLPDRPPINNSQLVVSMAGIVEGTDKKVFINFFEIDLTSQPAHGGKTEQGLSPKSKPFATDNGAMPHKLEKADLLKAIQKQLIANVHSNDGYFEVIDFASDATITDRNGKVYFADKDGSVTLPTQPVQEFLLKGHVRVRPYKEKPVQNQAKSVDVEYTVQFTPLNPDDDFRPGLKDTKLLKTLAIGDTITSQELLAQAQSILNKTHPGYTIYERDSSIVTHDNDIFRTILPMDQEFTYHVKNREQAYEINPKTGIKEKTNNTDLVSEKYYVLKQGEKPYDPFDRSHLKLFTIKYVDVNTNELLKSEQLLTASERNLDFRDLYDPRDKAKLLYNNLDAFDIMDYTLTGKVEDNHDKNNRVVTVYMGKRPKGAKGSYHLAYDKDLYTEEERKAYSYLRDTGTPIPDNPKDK

[17] = viability loss of HPDE-C7K cells – cell-based, fluorescence, HTS, primary screen (AID 431); assay type: functional; conditions: Homo sapiens
Nonstructural protein 1 = Nonstructural protein 1 (Influenza A virus, UniProt Q194T2); assay type: functional, Influenza A virus (A/California/07/2009(H1N1))
[18] = biological target: T3, Heat shock factor protein 1 (Mus musculus, UniProt P38532); assay: enhancement of HSF1-driven luciferase signal – cell-based, NIH3T3, luminescence, dose retest, confirmation (AID 435004); assay type: functional;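 note: stress induced by proteasome inhibitor MG132 added 30 min after compound; luciferase reporter driven by HSF1 response element in NIH3T3 cells; actives raise luminescence as potentiators of the MG132 stress response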
T3 sequence (P38532 whole entry): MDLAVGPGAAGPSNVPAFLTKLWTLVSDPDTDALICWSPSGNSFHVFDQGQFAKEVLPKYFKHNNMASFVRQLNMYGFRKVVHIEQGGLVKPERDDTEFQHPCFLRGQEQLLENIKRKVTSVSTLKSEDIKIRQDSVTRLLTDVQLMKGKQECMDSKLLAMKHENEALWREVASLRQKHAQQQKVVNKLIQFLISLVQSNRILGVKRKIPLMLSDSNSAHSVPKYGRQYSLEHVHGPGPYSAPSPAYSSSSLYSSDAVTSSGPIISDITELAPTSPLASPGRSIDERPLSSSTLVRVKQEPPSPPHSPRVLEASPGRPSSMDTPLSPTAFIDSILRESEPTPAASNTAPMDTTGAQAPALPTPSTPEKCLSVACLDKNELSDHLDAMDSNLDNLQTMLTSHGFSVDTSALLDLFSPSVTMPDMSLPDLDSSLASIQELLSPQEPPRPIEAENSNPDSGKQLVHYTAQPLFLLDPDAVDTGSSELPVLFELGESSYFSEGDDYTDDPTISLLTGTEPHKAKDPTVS

Sequence of 3-phosphoinositide-dependent protein kinase 1 (O15530 whole entry): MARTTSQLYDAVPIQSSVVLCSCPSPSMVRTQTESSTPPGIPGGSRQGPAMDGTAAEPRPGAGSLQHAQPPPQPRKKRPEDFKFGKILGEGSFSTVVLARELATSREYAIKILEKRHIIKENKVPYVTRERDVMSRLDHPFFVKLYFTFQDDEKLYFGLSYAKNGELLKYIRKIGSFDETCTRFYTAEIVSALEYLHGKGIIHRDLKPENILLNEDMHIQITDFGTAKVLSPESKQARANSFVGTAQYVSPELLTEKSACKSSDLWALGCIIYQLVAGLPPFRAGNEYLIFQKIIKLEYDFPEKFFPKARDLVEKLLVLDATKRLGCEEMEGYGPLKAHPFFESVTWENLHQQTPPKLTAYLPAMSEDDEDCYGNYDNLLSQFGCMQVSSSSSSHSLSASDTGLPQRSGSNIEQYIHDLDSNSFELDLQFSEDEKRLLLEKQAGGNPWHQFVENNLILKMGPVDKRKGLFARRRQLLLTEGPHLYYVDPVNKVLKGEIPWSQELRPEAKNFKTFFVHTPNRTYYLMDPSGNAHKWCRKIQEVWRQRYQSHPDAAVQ
Sequence of Cyclin-dependent kinase 1 (P06493 whole entry): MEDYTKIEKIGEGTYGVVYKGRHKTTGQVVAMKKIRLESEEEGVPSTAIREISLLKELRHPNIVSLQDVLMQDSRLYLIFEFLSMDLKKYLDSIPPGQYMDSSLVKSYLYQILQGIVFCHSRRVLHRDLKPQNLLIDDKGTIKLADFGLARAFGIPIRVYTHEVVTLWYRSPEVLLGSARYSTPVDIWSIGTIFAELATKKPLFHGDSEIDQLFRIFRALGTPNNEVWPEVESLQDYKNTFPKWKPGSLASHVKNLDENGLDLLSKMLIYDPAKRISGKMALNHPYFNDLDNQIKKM
Sequence of Death-associated protein kinase 3 (O43293 whole entry): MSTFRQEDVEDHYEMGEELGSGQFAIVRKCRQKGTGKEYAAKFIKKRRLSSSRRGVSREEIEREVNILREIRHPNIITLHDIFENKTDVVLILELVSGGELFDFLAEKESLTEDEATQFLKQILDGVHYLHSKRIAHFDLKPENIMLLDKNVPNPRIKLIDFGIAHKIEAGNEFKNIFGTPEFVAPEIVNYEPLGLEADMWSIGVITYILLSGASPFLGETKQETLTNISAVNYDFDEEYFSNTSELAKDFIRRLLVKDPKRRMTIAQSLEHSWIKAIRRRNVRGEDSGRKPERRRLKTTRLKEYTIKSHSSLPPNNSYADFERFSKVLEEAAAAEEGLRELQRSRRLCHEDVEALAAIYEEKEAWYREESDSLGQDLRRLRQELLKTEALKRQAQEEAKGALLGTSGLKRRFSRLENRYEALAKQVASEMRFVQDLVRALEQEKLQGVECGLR
Sequence of Nonstructural protein 1 (Q194T2 whole entry): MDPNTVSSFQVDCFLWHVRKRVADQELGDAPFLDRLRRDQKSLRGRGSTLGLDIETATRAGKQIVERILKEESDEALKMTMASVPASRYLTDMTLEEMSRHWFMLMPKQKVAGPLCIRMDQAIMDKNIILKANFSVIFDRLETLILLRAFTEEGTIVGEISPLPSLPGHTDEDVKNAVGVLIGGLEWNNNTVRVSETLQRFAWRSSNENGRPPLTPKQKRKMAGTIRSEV
Sequence of Testis-specific serine/threonine-protein kinase 2 (Q96PF2 whole entry): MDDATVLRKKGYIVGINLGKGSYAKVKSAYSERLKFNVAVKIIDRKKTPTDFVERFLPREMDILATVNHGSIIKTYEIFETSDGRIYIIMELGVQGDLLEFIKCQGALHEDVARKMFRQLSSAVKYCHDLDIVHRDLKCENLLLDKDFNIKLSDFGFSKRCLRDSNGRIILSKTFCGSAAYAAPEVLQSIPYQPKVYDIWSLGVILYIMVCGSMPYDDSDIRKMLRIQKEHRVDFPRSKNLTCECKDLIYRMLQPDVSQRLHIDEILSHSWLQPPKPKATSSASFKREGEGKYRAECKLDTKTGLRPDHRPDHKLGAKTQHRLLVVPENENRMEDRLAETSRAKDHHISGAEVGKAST
Sequence of Insulin receptor (P06213 28-758 limits assumed): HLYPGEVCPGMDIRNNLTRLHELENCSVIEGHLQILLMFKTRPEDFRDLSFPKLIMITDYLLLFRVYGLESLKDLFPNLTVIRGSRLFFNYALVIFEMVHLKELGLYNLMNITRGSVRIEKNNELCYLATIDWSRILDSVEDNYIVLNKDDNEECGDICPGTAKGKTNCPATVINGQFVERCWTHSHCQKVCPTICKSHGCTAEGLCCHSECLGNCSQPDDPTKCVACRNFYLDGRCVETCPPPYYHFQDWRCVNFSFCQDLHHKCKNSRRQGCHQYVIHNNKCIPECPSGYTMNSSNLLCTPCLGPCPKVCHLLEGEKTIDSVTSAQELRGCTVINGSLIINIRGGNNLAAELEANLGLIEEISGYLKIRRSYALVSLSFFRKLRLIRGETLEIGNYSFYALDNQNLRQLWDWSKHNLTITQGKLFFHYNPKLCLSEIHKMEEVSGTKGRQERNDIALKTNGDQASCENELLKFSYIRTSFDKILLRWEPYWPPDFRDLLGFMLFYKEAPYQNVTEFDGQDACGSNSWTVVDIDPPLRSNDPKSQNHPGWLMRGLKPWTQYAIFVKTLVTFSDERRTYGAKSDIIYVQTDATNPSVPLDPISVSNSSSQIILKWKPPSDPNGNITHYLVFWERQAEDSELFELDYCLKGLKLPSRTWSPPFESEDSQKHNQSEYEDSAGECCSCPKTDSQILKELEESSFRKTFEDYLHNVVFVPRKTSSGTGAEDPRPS
Sequence of Insulin receptor (P06213 763-1382 limits assumed): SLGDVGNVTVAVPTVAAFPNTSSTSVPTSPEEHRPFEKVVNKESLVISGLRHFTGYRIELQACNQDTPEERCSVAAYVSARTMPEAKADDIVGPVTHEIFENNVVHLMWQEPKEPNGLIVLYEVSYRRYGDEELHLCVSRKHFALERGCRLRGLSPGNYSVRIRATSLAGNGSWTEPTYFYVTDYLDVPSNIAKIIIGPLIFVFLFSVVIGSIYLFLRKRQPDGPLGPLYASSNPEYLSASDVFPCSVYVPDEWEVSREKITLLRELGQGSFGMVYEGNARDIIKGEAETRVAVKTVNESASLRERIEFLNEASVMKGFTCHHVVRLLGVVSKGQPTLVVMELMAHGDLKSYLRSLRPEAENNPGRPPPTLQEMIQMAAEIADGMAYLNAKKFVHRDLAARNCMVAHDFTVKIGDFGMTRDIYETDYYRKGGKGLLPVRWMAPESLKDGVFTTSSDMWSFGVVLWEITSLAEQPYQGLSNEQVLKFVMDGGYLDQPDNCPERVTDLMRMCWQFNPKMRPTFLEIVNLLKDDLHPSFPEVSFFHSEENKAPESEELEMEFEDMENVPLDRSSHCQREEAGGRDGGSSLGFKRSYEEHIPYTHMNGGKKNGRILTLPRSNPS
Sequence of Testis-specific serine/threonine-protein kinase 1 (Q9BXA7 whole entry): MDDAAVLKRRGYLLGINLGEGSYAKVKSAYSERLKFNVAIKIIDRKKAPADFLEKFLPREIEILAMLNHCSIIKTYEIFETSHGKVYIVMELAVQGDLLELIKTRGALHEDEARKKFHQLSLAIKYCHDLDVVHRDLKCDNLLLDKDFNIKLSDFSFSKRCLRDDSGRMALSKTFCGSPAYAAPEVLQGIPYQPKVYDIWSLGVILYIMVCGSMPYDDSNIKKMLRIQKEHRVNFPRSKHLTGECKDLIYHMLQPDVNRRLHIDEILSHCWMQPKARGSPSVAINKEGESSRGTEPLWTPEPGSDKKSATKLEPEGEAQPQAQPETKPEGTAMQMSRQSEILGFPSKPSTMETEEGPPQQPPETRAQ
Sequence of Induced myeloid leukemia cell differentiation protein Mcl-1 (Q07820 whole entry): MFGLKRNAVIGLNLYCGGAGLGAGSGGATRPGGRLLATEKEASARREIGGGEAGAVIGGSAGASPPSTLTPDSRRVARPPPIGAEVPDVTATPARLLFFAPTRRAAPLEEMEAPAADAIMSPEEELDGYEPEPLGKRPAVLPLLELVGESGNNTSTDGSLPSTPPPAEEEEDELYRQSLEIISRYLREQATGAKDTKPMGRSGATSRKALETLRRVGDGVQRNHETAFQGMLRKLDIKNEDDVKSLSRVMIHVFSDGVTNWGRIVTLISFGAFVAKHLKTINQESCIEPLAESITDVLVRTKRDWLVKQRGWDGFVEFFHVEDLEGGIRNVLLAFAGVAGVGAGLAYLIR
Sequence of Casein kinase II subunit alpha (P68400 whole entry): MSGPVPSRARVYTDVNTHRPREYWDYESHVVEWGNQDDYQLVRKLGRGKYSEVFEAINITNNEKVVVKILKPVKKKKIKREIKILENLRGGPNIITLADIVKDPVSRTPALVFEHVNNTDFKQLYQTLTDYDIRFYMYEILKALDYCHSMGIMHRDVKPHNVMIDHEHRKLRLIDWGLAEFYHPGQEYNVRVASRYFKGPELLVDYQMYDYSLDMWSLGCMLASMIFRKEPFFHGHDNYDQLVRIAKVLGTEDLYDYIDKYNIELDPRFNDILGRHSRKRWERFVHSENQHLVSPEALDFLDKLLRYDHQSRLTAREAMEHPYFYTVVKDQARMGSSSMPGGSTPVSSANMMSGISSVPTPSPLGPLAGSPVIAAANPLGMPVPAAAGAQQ
Sequence of Proto-oncogene tyrosine-protein kinase Src (P12931 2-536 limits assumed): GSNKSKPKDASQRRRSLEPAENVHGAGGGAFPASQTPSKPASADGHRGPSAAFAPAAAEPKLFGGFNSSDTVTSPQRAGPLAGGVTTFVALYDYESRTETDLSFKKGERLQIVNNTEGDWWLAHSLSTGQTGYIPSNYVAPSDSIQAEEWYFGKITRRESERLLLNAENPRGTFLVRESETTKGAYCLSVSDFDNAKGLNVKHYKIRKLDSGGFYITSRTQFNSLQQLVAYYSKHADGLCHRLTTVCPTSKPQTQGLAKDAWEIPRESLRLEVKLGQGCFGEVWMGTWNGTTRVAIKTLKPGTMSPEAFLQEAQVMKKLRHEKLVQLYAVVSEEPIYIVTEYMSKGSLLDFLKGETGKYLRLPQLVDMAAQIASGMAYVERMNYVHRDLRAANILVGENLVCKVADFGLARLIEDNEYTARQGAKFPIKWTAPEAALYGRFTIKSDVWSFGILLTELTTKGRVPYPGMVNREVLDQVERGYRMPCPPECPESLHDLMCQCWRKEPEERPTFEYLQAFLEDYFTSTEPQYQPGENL

Q: Which IC50 [1] does the source give for CS(=O)(=O)c1ccc2c(c1)SC1=NC(=O)/C(=C/c3ccc(O)c(O)c3)C(=N)N12 here?
A: Its IC50 is 5.26 µM (active).

Q: And the EC50 [2]?
A: Its EC50 is 61 µM (active).

Q: What about the AC50 [3] of the same molecule?
A: Its AC50 is 2.71 µM (active).

Q: What about the IC50 [4] of the same molecule?
A: Its IC50 is 38.1 µM (active).

Q: With COc1ccc(C(=O)Nc2n[nH]c3ccc(-c4cn(Cc5ccccc5)nn4)cc23)cc1OC as the molecule, how does the Ki [5] read?
A: The Ki was 1.26 µM (active).

Q: What about the Ki [6] of the same molecule?
A: Its Ki is > 6.31 µM (inactive).

Q: What about the Ki [7] of the same molecule?
A: Its Ki is 0.0794 µM (active).

Q: What about the Ki [8] of the same molecule?
A: The Ki was 0.0316 µM (active).

Q: What about the Ki (SRSF protein kinase 1) of the same molecule?
A: The Ki was 1.58 µM (active).

Q: And the Ki [9]?
A: The Ki was 0.0158 µM (active).

Q: And the Ki [10]?
A: The Ki was > 1.58 µM (inactive).

Q: What about the Ki (Insulin receptor) of the same molecule?
A: The Ki was 1.26 µM (active).

Q: What about the Ki [11] of the same molecule?
A: Its Ki is 0.316 µM (active).

Q: And the Ki [12]?
A: The Ki was 0.0398 µM (active).

Q: What about the Ki [13] of the same molecule?
A: The Ki was 1 µM (active).

Q: For C=CCNC1=C(Cl)C(=O)c2ccccc2C1=O, which AC50 [14] is on record?
A: Its AC50 is 9.99 µM (active).

Q: What about the AC50 [15] of the same molecule?
A: Its AC50 is 1.56 µM (active).

Q: With CCOC(=O)C(C(=O)OCC)c1cc(Br)c2noc3c2c1C(=O)c1ccccc1-3 as the molecule, how does the EC50 [16] read?
A: Its EC50 is 2.9 µM (active).

Q: What about the EC50 (Streptokinase A) of the same molecule?
A: Its EC50 is 11.9 µM (active).

Q: And the EC50 [17]?
A: Its EC50 is 3.06 µM (active).

Q: And the IC50 (Nonstructural protein 1)?
A: Its IC50 is 35.5 µM (active).

Q: What about the EC50 [18] of the same molecule?
A: Its EC50 is > 260 µM (inconclusive).
